Assay results published in patent publication US6706663B2, “Herbicidal 3-heterocyclic substituted benzisothiazole and benzisoxazole compounds” (Wyeth, priority 2000, dated 2004).

Experiments:
[1] = test system: ORYSAT (Rice, Tebonnet); experiment: Flooded paddy, post-transplant rice tolerance; format: in vivo, Oryza sativa, (L.) Tebonnet; conditions: flooded paddy, post-transplant rice, rated 3-4 weeks after treatment, 0-9 rating scale
Method in brief: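 Steps: transplant two ten-day-old seedlings into silt loam; flood to 1.5-3 cm above soil; apply herbicide post-transplant; maintain water on greenhouse benches; rate stand, vigor, malformation, size and chlorosis on a 0-9 visual scale versus control.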

[2] = test system: ECHORC (Echinochloa oryzoides); experiment: Flooded paddy, preemergence weed control; format: in vivo, Echinochloa oryzoides (Ard.) Fritsch.; conditions: rated 3-4 weeks after treatment, 0-9 rating scale
Method in brief: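 Seeds or propagules were planted in the top 0.5 cm of silt loam soil and kept flooded 1.5–3 cm above the surface throughout, then held in the greenhouse. Injury was rated visually on a 0–9 scale against untreated controls, covering stand, vigor, malformation, size and chlorosis.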

[3] = test system: ECHCG (Echinochloa crus-galli); experiment: Postemergence herbicidal evaluation; format: in vivo, (L.) Beau; conditions: postemergence
Method in brief: (§1)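 Seedlings grown for about two weeks were sprayed postemergence and then kept under standard greenhouse care. Injury was rated visually 4–5 weeks after treatment on a 0–9 scale against untreated controls, and ratings from repeat tests were averaged.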

[4] = test system: ABUTH (Abutilon theophrasti); experiment: Preemergence herbicidal evaluation; format: in vivo, Medic.; conditions: rated 4-5 weeks after treatment
[5] = test system: GLXMAW (Soybean, Williams); experiment: Postemergence herbicidal evaluation; format: in vivo, Glycine max, (L.) Merr. cv Williams; conditions: postemergence
Method in brief: as §1

[6] = test system: TRZAWR (Wheat, Winter, cv Riband); experiment: Preemergence herbicidal evaluation; format: in vivo, Triticum aestivum; conditions: rated 4-5 weeks after treatment
Method in brief: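 Each species was sown separately in potting soil over roughly one inch of soil, and the surface sprayed with compound dissolved in aqueous acetone. Assessment used a 0–9 visual scale against a control after four to five weeks.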

[7] = test system: ZEAMX (Corn, Field); experiment: Preemergence herbicidal evaluation; format: in vivo, Zea mays, L.; conditions: rated 4-5 weeks after treatment
[8] = test system: ZEAMX (Corn, Field); experiment: Postemergence herbicidal evaluation; format: in vivo, Zea mays, L.; conditions: postemergence
Method in brief: as §1

[9] = test system: GLXMAW (Soybean, Williams); experiment: Preemergence herbicidal evaluation; format: in vivo, Glycine max, (L.) Merr. cv Williams; conditions: rated 4-5 weeks after treatment
[10] = test system: IPOHE (Ipomoea hederacea); experiment: Preemergence herbicidal evaluation; format: in vivo, (L.) Jacq.; conditions: rated 4-5 weeks after treatment
[11] = preemergence, rate 0.0620 kg/ha
[12] = preemergence, rate 0.1250 kg/ha
[13] = preemergence, rate 0.2500 kg/ha

| Compound | herbicidal rating, ORYSAT (rice tolerance) ([1]; rate 0.0080 kg/ha) | herbicidal rating, ORYSAT (rice tolerance) ([1]; rate 0.0320 kg/ha) | herbicidal rating, ORYSAT (rice tolerance) ([1]; rate 0.1250 kg/ha) | herbicidal rating, ECHORC ([2]; rate 0.0080 kg/ha) | herbicidal rating, ECHORC ([2]; rate 0.0320 kg/ha) | herbicidal rating, ECHORC ([2]; rate 0.1250 kg/ha) | ECHCG herbicidal rating ([3]; rate 0.0320 kg/ha) | ECHCG herbicidal rating ([3]; rate 0.0620 kg/ha) | Preemergence herbicidal rating ABUTH ([4]; Rate 0.0620 kg/ha) | Preemergence herbicidal rating ABUTH ([4]; Rate 0.1250 kg/ha) | Preemergence herbicidal rating ABUTH ([4]; Rate 0.2500 kg/ha) | GLXMAW herbicidal rating ([5]; rate 0.0320 kg/ha) | GLXMAW herbicidal rating ([5]; rate 0.0620 kg/ha) | Preemergence herbicidal rating TRZAWR ([6]; Rate 0.0620 kg/ha) | Preemergence herbicidal rating TRZAWR ([6]; Rate 0.1250 kg/ha) | Preemergence herbicidal rating TRZAWR ([6]; Rate 0.2500 kg/ha) | Preemergence herbicidal rating ZEAMX ([7]; Rate 0.0620 kg/ha) | Preemergence herbicidal rating ZEAMX ([7]; Rate 0.1250 kg/ha) | ZEAMX herbicidal rating ([8]; rate 0.0320 kg/ha) | ZEAMX herbicidal rating ([8]; rate 0.0620 kg/ha) | further results |
| --- | --- | --- | --- | --- | --- | --- | --- | --- | --- | --- | --- | --- | --- | --- | --- | --- | --- | --- | --- | --- | --- |
| C=CC1COC(c2nsc3ccc(-n4c(=O)cc(C(F)(F)F)n(C)c4=O)cc23)O1 (stereo not drawn) [Compound 76, 1-methyl-6-(trifluoromethyl)-3-[3-(4-vinyl-1,3-dioxolan-2-yl)-1,2-benzisothiazol-5-yl]uracil] | 2.0 | 3.0 | 9.0 | 5.0 | 7.0 | 9.0 | 0.0 | 3.0 | 9.0 | 9.0 | 9.0 | 7.0 | 8.0 | 7.0 | 8.0 | 8.0 | 8.5 | 8.5 | 3.5 | 4.5 | Preemergence herbicidal rating ZEAMX ([7]; Rate 0.2500 kg/ha): 9.0; Preemergence herbicidal rating GLXMAW ([9]; Rate 0.0620 kg/ha): 7.5; Preemergence herbicidal rating GLXMAW ([9]; Rate 0.1250 kg/ha): 9.0; Preemergence herbicidal rating GLXMAW ([9]; Rate 0.2500 kg/ha): 9.0; Preemergence herbicidal rating IPOHE ([10]; Rate 0.0620 kg/ha): 7.5; Preemergence herbicidal rating IPOHE ([10]; Rate 0.1250 kg/ha): 9.0; Preemergence herbicidal rating IPOHE ([10]; Rate 0.2500 kg/ha): 9.0 |
| CCCC1COC(c2nsc3ccc(-n4c(=O)cc(C(F)(F)F)n(C)c4=O)cc23)O1 (stereo not drawn) [Compound 77, 1-methyl-3-[3-(4-propyl-1,3-dioxolan-2-yl)-1,2-benzisothiazol-5-yl]-6-(trifluoromethyl)uracil] | 0.0 | 3.0 | 7.0 | 0.0 | 5.0 | 9.0 | 4.0 | 4.0 | 9.0 | 9.0 | 9.0 | 7.5 | 8.5 | 6.0 | 6.0 | 7.0 | 7.0 | 7.5 | 3.0 | 3.5 | Preemergence herbicidal rating ZEAMX ([7]; Rate 0.2500 kg/ha): 8.5; Preemergence herbicidal rating GLXMAW ([9]; Rate 0.0620 kg/ha): 4.0; Preemergence herbicidal rating GLXMAW ([9]; Rate 0.1250 kg/ha): 6.0; Preemergence herbicidal rating GLXMAW ([9]; Rate 0.2500 kg/ha): 9.0; Preemergence herbicidal rating IPOHE ([10]; Rate 0.0620 kg/ha): 3.0; Preemergence herbicidal rating IPOHE ([10]; Rate 0.1250 kg/ha): 4.0; Preemergence herbicidal rating IPOHE ([10]; Rate 0.2500 kg/ha): 7.5 |
| Cn1c(C(F)(F)F)cc(=O)n(-c2ccc3snc(C4OCC(c5ccccc5)O4)c3c2)c1=O (stereo not drawn) [Compound 78, 1-methyl-3-[3-(4-phenyl-1,3-dioxolan-2-yl)-1,2-benzisothiazol-5-yl]-6-(trifluoromethyl)uracil] | 4.0 | 5.7 | 8.5 | 8.0 | 9.0 | 9.0 | 2.0 | 3.0 | 9.0 | 9.0 | 9.0 | 5.0 | 5.5 | 5.0 | 5.0 | 6.0 | 3.0 | 3.5 | 3.5 | 3.5 | Preemergence herbicidal rating ZEAMX ([7]; Rate 0.2500 kg/ha): 6.0; Preemergence herbicidal rating GLXMAW ([9]; Rate 0.0620 kg/ha): 2.5; Preemergence herbicidal rating GLXMAW ([9]; Rate 0.1250 kg/ha): 6.0; Preemergence herbicidal rating GLXMAW ([9]; Rate 0.2500 kg/ha): 5.0; Preemergence herbicidal rating IPOHE ([10]; Rate 0.0620 kg/ha): 2.0; Preemergence herbicidal rating IPOHE ([10]; Rate 0.1250 kg/ha): 5.0; Preemergence herbicidal rating IPOHE ([10]; Rate 0.2500 kg/ha): 6.0 |
| Cn1c(C(F)(F)F)cc(=O)n(-c2ccc3snc(-c4sccc4CBr)c3c2)c1=O [Compound 80, 3-[3-[3-(bromomethyl)-2-thienyl]-1,2-benzisothiazol-5-yl]-1-methyl-6-(trifluoromethyl)uracil] | 2.5 | 5.5 | 8.0 | 1.0 | 4.0 | 8.0 | 0.0 | 0.0 | 4.0 | 9.0 | 9.0 | 5.0 | 7.0 | 0.0 | 0.0 | 2.0 | 0.5 | 1.5 | 3.5 | 5.5 | Preemergence herbicidal rating ZEAMX ([7]; Rate 0.2500 kg/ha): 2.5; Preemergence herbicidal rating GLXMAW ([9]; Rate 0.0620 kg/ha): 0.5; Preemergence herbicidal rating GLXMAW ([9]; Rate 0.1250 kg/ha): 0.5; Preemergence herbicidal rating GLXMAW ([9]; Rate 0.2500 kg/ha): 6.0; Preemergence herbicidal rating IPOHE ([10]; Rate 0.0620 kg/ha): 0.5; Preemergence herbicidal rating IPOHE ([10]; Rate 0.1250 kg/ha): 2.0; Preemergence herbicidal rating IPOHE ([10]; Rate 0.2500 kg/ha): 4.0 |
| Cn1c(C(F)(F)F)cc(=O)n(-c2ccc3snc(-c4ccoc4)c3c2)c1=O [Compound 83, 3-[3-(3-furyl)-1,2-benzisothiazol-5-yl]-1-methyl-6-(trifluoromethyl)uracil] | 0.0 | 2.0 | 2.0 | 0.0 | 6.0 | 7.0 | 2.0 | 3.0 |  |  |  | 4.0 | 6.0 |  |  |  |  |  | 2.5 | 3.0 | Preemergence herbicidal rating ABUTH [4, 11]: 2.0; Preemergence herbicidal rating ABUTH [4, 12]: 7.5; Preemergence herbicidal rating ABUTH [4, 13]: 9.0; Preemergence herbicidal rating TRZAWR [6, 11]: 3.0; Preemergence herbicidal rating TRZAWR [6, 12]: 4.0; Preemergence herbicidal rating TRZAWR [6, 13]: 5.0; Preemergence herbicidal rating ZEAMX [7, 11]: 3.0; Preemergence herbicidal rating ZEAMX [7, 12]: 5.0; Preemergence herbicidal rating ZEAMX [7, 13]: 6.0; Preemergence herbicidal rating GLXMAW [9, 11]: 0.0; Preemergence herbicidal rating GLXMAW [9, 12]: 2.5; Preemergence herbicidal rating GLXMAW [9, 13]: 6.0; Preemergence herbicidal rating IPOHE [10, 11]: 3.0; Preemergence herbicidal rating IPOHE [10, 12]: 5.0; Preemergence herbicidal rating IPOHE [10, 13]: 5.5 |
| Cn1c(C(F)(F)F)cc(=O)n(-c2ccc3snc(-c4sccc4CO)c3c2)c1=O [Compound 85, 3-[3-[3-(hydroxymethyl)-2-thienyl]-1,2-benzisothiazol-5-yl]-1-methyl-6-(trifluoromethyl)uracil] |  |  | 5.5 |  |  | 8.0 | 0.0 | 2.0 |  |  |  | 3.5 | 4.0 |  |  |  |  |  | 4.5 | 5.0 | ORYSAT herbicidal rating (transplanted rice tolerance) ([1]; rate 0.0080 kg/ha): 0.0; ORYSAT herbicidal rating (transplanted rice tolerance) ([1]; rate 0.0320 kg/ha): 1.5; ECHORC herbicidal rating ([2]; rate 0.0080 kg/ha): 0.0; ECHORC herbicidal rating ([2]; rate 0.0320 kg/ha): 5.0; Preemergence herbicidal rating ABUTH [4, 11]: 9.0; Preemergence herbicidal rating ABUTH [4, 12]: 9.0; Preemergence herbicidal rating ABUTH [4, 13]: 9.0; Preemergence herbicidal rating TRZAWR [6, 11]: 0.0; Preemergence herbicidal rating TRZAWR [6, 12]: 0.0; Preemergence herbicidal rating TRZAWR [6, 13]: 3.0; Preemergence herbicidal rating ZEAMX [7, 11]: 0.0; Preemergence herbicidal rating ZEAMX [7, 12]: 3.0; Preemergence herbicidal rating ZEAMX [7, 13]: 3.0; Preemergence herbicidal rating GLXMAW [9, 11]: 0.0; Preemergence herbicidal rating GLXMAW [9, 12]: 3.0; Preemergence herbicidal rating GLXMAW [9, 13]: 9.0; Preemergence herbicidal rating IPOHE [10, 11]: 0.0; Preemergence herbicidal rating IPOHE [10, 12]: 4.0; Preemergence herbicidal rating IPOHE [10, 13]: 7.0 |
